{"source": "patent US20260335277A1", "about": "“CHLOROTONIL DERIVATIVES” (priority 2023, published 2026)", "key": {"[1]": {"experiment": "Aqueous solubility", "assay_type": "physicochemical", "conditions": "for solubility thermodynamic: read-out: semi thermodynamic solubility", "description": "(§1) Complementing the toxicity profiling, ADME properties of the lead dehalogenil were determined. This had not been possible for the first generation frontrunner ChB1-Epo2 or the natural product ChA because of their poor limit of detection. […] Across species (mouse, rat, human), metabolic stability is high while plasma stability is moderate. Besides, no hemolysis and no inhibition of the metabolically important enzyme CYP3A4 was observed by both dehalogenil and ChA. Plasma protein binding (PPB) is >99.4% in all species."}, "[2]": {"experiment": "Metabolic stability", "assay_type": "in vitro ADME", "conditions": "for microsomal CLint: liver microsomes, read-out: microsomal clearance", "description": "as §1"}, "[3]": {"experiment": "Plasma stability", "assay_type": "in vitro ADME", "conditions": "for half-life: plasma, read-out: plasma stability t1/2 (converted)", "description": "as §1"}, "[4]": {"experiment": "Plasma protein binding (PPB)", "assay_type": "in vitro ADME, rat", "description": "as §1"}, "[5]": {"experiment": "Plasma protein binding (PPB)", "assay_type": "in vitro ADME", "description": "as §1"}, "[6]": {"experiment": "Hemolysis", "assay_type": "cell-based", "description": "as §1"}, "[7]": {"experiment": "In vivo PK after peroral administration (soy oil)", "parameters": "species or system mouse", "conditions": "for half-life / AUC(0-t) / Cmax / Tmax: mouse, plasma; for half-life: read-out: t1/2z (converted)", "description": "Peroral administration was compared between dehalogenil and ChB1-Epo2. […] Clearance was slow (t1/2z 5.5 and 10 h for 10 and 50 mg/kg, respectively) but considerably higher than for ChB1-Epo2."}, "[8]": {"experiment": "In vivo PK, peroral vs. intravenous administration, peroral bioavailability", "parameters": "species or system mouse", "conditions": "for half-life: read-out: t1/2z (converted)", "source_text": "According to the current invention, intravenous injection in vivo was possible for the first time using a vehicle consisting of 50% ClearSol™ in phosphate buffered saline (PBS) pH 7.4."}, "[9]": {"system": "S. aureus USA300LAC", "experiment": "S. aureus blood infection (sepsis) model", "assay_type": "in vivo, mouse (CD-1)", "conditions": "for survival: BID, until 3 days post infection", "description": "Dehalogenil was further tested in a Staphylococcus blood infection (sepsis) model, alongside linezolid as reference compound. Mice were infected using S. aureus USA300LAC (10^8 CFU/animal) and subsequently treated with a daily total of 5, 10 or 25 mg/kg SC dehalogenil, split into two doses (8 h interval, BID regimen) until 3 days post infection.\nMice were infected intravenously using S. aureus USA300LAC (10^8 CFU/mice). Compounds were administered twice daily starting day 0 until day 3, with the daily total dose indicated. Curves were compared via Mantel-Cox test (Prism), with ***: p<0.001 and **: p<0.01."}, "[10]": {"conditions": "literature product; cited from earlier work"}, "[11]": {"conditions": "mice, oral, soy oil, vs ChB1-Epo2"}, "[12]": {"conditions": "po, mice, 10 mg/kg, mean (n = 3)"}, "[13]": {"conditions": "po, mice, 50 mg/kg, mean (n = 3)"}, "[14]": {"conditions": "mouse, in vivo, mice, 7.5 mg/kg iv, mean (n = 3)"}, "[15]": {"conditions": "mouse, in vivo, mice, 10 mg/kg po, mean (n = 3)"}}, "note": "Entries after “also recorded” stand apart in the source; their conditions may differ. Read-outs that look alike come from different tables or passages of the source."}
{"smiles": "CC1=CC(C)C2C(C=CC3C(C)C=CC=CC(C)OC(=O)C(C)C(=O)CC(=O)C32)C1", "note": "(centres unmarked) [dehalogenil]", "values": [{"measurement": "solubility thermodynamic", "setting": "[1]; pH 5.0", "value": "34.9 ± 2.7", "unit": "µM"}, {"measurement": "solubility thermodynamic", "setting": "[1]; pH 7.4", "value": "41.4 ± 10.3", "unit": "µM"}, {"measurement": "Solubility increase compared to the natural product ChA", "setting": "[1]; pH 7.4, vs ChA", "value": "more than 500 fold"}, {"measurement": "solubility thermodynamic", "setting": "[1]; pH 9.0", "value": "16.5 ± 8.7", "unit": "µM"}, {"measurement": "Solubility compared to ChB1-Epo2", "setting": "[1]; vs ChB1-Epo2, aqueous", "value": "more than doubled; also recorded: doubled aqueous solubility"}, {"measurement": "metabolic stability", "setting": "[2]; human", "value": "high"}, {"measurement": "microsomal CLint", "setting": "[2]; human", "value": 6.4, "unit": "µL/min/mg"}, {"measurement": "metabolic stability", "setting": "[2]; mouse", "value": "high"}, {"measurement": "microsomal CLint", "setting": "[2]; mouse", "value": 6.4, "unit": "µL/min/mg"}, {"measurement": "metabolic stability", "setting": "[2]; rat", "value": "high"}, {"measurement": "microsomal CLint", "setting": "[2]; rat", "value": 14, "unit": "µL/min/mg"}, {"measurement": "plasma stability", "setting": "[3]; human", "value": "moderate"}, {"measurement": "half-life", "setting": "[3]; human", "value": 1.4, "unit": "h"}, {"measurement": "plasma stability", "setting": "[3]; mouse", "value": "moderate"}, {"measurement": "half-life", "setting": "[3]; mouse", "value": 1.5, "unit": "h"}, {"measurement": "plasma stability", "setting": "[3]; rat", "value": "moderate"}, {"measurement": "half-life", "setting": "[3]; rat", "value": 1.2, "unit": "h"}, {"measurement": "fraction unbound", "setting": "[4]; plasma, all species: rat", "value": "< 0.006"}, {"measurement": "plasma protein binding", "setting": "[4]; rat", "value": ">99.4", "unit": "%"}, {"measurement": "fraction unbound", "setting": "[5]; human, all species: human, read-out: Plasma protein binding (PPB)", "value": "< 0.006"}, {"measurement": "fraction unbound", "setting": "[5]; human, read-out: plasma protein binding", "value": "< 0.004"}, {"measurement": "fraction unbound", "setting": "[5]; mouse, all species: mouse, read-out: Plasma protein binding (PPB)", "value": "< 0.006"}, {"measurement": "fraction unbound", "setting": "[5]; mouse, read-out: plasma protein binding", "value": "< 0.002"}, {"measurement": "hemolysis", "setting": "[6]", "value": "no hemolysis"}, {"measurement": "hemolysis at 20 µM", "setting": "[6]; 20 μM, human blood cells, read-out: haemolysis of human blood cells", "value": 1.4, "unit": "%"}, {"measurement": "tz", "setting": "[7]; mice, 10 mg/kg, p.o., mean (n = 3)", "value": 24, "unit": "h"}, {"measurement": "tz", "setting": "[7]; mice, 50 mg/kg, p.o., mean (n = 3)", "value": 24, "unit": "h"}, {"measurement": "AUC0-tz compared to ChB1-Epo2", "setting": "[7]; [11]", "value": "ca. six-fold higher"}, {"measurement": "cmax compared to ChB1-Epo2", "setting": "[7]; [11]", "value": "ca. four-fold higher"}, {"measurement": "Clearance", "setting": "[7]; mice, po, soy oil", "value": "slow"}, {"measurement": "half-life", "setting": "[7]; po, 10 mg/kg, mice, 10 mg/kg po, soy oil", "value": 5.5, "unit": "h"}, {"measurement": "half-life", "setting": "[7]; po, 10 mg/kg, mice, 10 mg/kg, p.o., mean (n = 3)", "value": 5.5, "unit": "h"}, {"measurement": "half-life", "setting": "[7]; po, 50 mg/kg, mice, 50 mg/kg po, soy oil", "value": 10, "unit": "h"}, {"measurement": "half-life", "setting": "[7]; po, 50 mg/kg, mice, 50 mg/kg, p.o., mean (n = 3)", "value": 10.2, "unit": "h"}, {"measurement": "AUC(0-t)", "setting": "[7]; [12]", "value": 3020, "unit": "ng·h/mL"}, {"measurement": "Cmax", "setting": "[7]; [12]", "value": 261, "unit": "ng/mL"}, {"measurement": "Tmax", "setting": "[7]; [12]", "value": 3, "unit": "h"}, {"measurement": "AUC(0-t)", "setting": "[7]; [13]", "value": 8360, "unit": "ng·h/mL"}, {"measurement": "Cmax", "setting": "[7]; [13]", "value": 579, "unit": "ng/mL"}, {"measurement": "Tmax", "setting": "[7]; [13]", "value": 3, "unit": "h"}, {"measurement": "higher plasma levels", "setting": "[7]; rodents, comparator chlorotonil B1-Epo2 (implied)", "value": 3, "unit": "fold"}, {"measurement": "bioavailability", "setting": "[8]; mice, 7.5 mg/kg iv (reference)", "value": 100, "unit": "%"}, {"measurement": "tz", "setting": "[8]; mice, 7.5 mg/kg iv, mean (n = 3)", "value": 24, "unit": "h"}, {"measurement": "tz", "setting": "[8]; mice, 10 mg/kg po, mean (n = 3)", "value": 24, "unit": "h"}, {"measurement": "AUC(0-inf)", "setting": "[8]; [14]", "value": 12100, "unit": "ng·h/mL"}, {"measurement": "AUC(0-t)", "setting": "[8]; [14]", "value": 9580, "unit": "ng·h/mL"}, {"measurement": "C0", "setting": "[8]; [14]", "value": 872, "unit": "ng/mL"}, {"measurement": "half-life", "setting": "[8]; [14]", "value": 10.8, "unit": "h"}, {"measurement": "bioavailability", "setting": "[8]; mouse, in vivo, mice, 10 mg/kg po vs 7.5 mg/kg iv, read-out: Bioavailability", "value": 9.5, "unit": "%"}, {"measurement": "AUC(0-inf)", "setting": "[8]; [15]", "value": 1540, "unit": "ng·h/mL"}, {"measurement": "AUC(0-t)", "setting": "[8]; [15]", "value": 1400, "unit": "ng·h/mL"}, {"measurement": "Cmax", "setting": "[8]; [15]", "value": 101, "unit": "ng/mL"}, {"measurement": "Tmax", "setting": "[8]; [15]", "value": 3, "unit": "h"}, {"measurement": "half-life", "setting": "[8]; [15]", "value": 6.7, "unit": "h"}, {"measurement": "bioavailability", "setting": "[8]; mouse, in vivo, rodents, oral, read-out: oral bioavailability", "value": "~10", "unit": "%"}, {"measurement": "survival", "setting": "[9]; 10 mg/kg daily total SC", "value": 80, "unit": "%"}, {"measurement": "survival", "setting": "[9]; 25 mg/kg daily total SC", "value": 90, "unit": "%"}, {"measurement": "survival rates compared to linezolid", "setting": "[9]; 10 and 25 mg/kg SC vs linezolid 60 mg/kg", "value": "increased survival rates comparable to a higher dose of linezolid"}, {"measurement": "activity described in the literature", "setting": "[10]", "value": "inactive"}]}
